Measurements published in ChEMBL document CHEMBL5046280, “Discovery of Small-Molecule Inhibitors of the PD-1/PD-L1 Axis That Promote PD-L1 Internalization and Degradation” (J Med Chem, 2022).
The source made the active and inactive calls. The calls are words filed in the database; no cut-off is given here.

Assays:
[1] = biological target: Programmed cell death protein 1/Programmed cell death 1 ligand 1 (Homo sapiens, UniProt Q9NZQ7); assay: Inhibition of PD-1/PD-L1 (unknown origin) interaction pre-incubated for 15 mins and measured after 90 mins by TR-FRET assay; type: protein-complex assay
Programmed cell death protein 1/Programmed cell death 1 ligand 1, sequence (Q15116 whole entry): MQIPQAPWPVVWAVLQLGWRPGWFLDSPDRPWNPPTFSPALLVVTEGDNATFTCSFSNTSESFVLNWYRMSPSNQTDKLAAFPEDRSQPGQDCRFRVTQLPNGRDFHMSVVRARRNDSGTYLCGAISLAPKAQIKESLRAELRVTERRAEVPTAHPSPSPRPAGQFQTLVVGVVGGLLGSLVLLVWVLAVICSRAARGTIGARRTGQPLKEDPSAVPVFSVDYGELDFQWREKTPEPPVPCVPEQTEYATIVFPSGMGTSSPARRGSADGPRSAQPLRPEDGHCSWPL
Programmed cell death protein 1/Programmed cell death 1 ligand 1, sequence (Q9NZQ7 whole entry): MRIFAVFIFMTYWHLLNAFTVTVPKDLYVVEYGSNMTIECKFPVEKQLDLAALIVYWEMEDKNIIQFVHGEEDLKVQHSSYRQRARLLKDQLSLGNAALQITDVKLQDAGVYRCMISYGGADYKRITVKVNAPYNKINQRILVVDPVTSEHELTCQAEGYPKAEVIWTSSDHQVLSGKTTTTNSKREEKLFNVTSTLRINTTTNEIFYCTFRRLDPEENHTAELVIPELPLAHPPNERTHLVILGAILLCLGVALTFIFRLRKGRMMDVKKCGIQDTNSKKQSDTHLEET

[2] = biological target: Programmed cell death 1 ligand 1 (Mus musculus, UniProt Q9EP73); assay: Binding affinity to mouse PD-L1 assessed as dissociation constant by micro-scale thermophoresis analysis
Programmed cell death 1 ligand 1 (Mus musculus, UniProt Q9EP73), sequence (Q9EP73 whole entry): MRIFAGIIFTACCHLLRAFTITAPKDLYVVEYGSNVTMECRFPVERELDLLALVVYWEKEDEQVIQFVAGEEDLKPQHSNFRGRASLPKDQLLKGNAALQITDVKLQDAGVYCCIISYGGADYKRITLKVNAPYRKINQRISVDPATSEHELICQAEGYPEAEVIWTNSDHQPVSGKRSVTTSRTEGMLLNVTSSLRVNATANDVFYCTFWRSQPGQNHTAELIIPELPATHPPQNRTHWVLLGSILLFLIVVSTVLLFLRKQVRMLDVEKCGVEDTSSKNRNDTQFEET

CT26 [3] = assay: Antitumor immunity activity against mouse CT26 cells implanted in BALB/c mouse assessed as upregulation of CXCL9 mRNA at 160 mg/kg, po administered once daily for 2 weeks by qRT-PCR analysis; type: functional, organism-based
MDA-MB-231 = assay: Antitumor immunity against human MDA-MB-231 cells co-cultured with CD3/CD28/CD2 T cell activator stimulated human PMBC assessed as tumor cell viability measuring lactate dehydrogenase release measured for 14 hrs by PBMC killing assay relative to control; type: functional, cell-based
[4] = Toxicity in BALB/c mouse harbouring mouse CT26 cells assessed as change in body weight at 40 to 120 mg/kg, po administered once daily for 2 weeks; type: organism-based; settings: in vivo, 336 h, dose 40-120 mg/kg
B16-F10 [5] = assay: Antitumor activity against po dosed mouse B16-F10 cells implanted in […] mouse assessed as increase in infiltration of CD8+ T cells level in tumor tissue administered once daily for 2 weeks by flow cytometry; type: functional, organism-based; settings: dose 40-160 mg/kg
CT26 [6] = assay: Antitumor activity against mouse CT26 cells implanted in BALB/c mouse assessed as reduction in tumor weight at 160 mg/kg, po administered once daily for 2 weeks; type: functional; set-up: scale not given: the % may be the effect or the level left
CT26 [7] = assay: Antitumor activity against mouse CT26 cells implanted in BALB/c mouse assessed as reduction in tumor weight at 80 mg/kg, po administered once daily for 2 weeks; type: functional; set-up: scale not given: the % may be the effect or the level left
CT26 [8] = assay: Antitumor activity against mouse CT26 cells implanted in BALB/c mouse assessed as downregulation of human PD-Ll expression in tumor tissue at 160 mg/kg per day, po administered once daily for 2 weeks by Western blotting analysis; type: functional, organism-based
CT26 [9] = assay: Antitumor activity against mouse CT26 cells implanted in BALB/c mouse assessed as reduction in tumor weight at 40 mg/kg, po administered once daily for 2 weeks; type: functional; set-up: scale not given: the % may be the effect or the level left
CT26 [10] = assay: Antitumor activity against mouse CT26 cells implanted in BALB/c mouse assessed as upregulation of human PD-L1 expression in tumor tissue at 40 mg/kg per day, po administered once daily for 2 weeks by Western blotting analysis; type: functional, organism-based
CT26 [11] = assay: Antitumor activity against mouse CT26 cells implanted in BALB/c mouse assessed as increase in infiltration of CD8+ T cells level in tumor tissue po administered once daily for 2 weeks by flow cytometry; type: functional, organism-based; settings: dose 40-160 mg/kg
CT26 [12] = assay: Antitumor immunity activity against mouse CT26 cells implanted in BALB/c mouse assessed as upregulation of CXCL10 mRNA at 160 mg/kg, po administered once daily for 2 weeks by qRT-PCR analysis; type: functional, organism-based
[13] = Toxicity in BALB/c mouse harbouring mouse CT26 cells assessed as mortality at 40 to 120 mg/kg, po administered once daily for 2 weeks; type: organism-based; settings: in vivo, 336 h, dose 40-120 mg/kg
B16-F10 [14] = assay: Antitumor immunity activity against mouse B16-F10 cells implanted in […] mouse assessed as increase level of IFN-gamma mRNA at 40 to 160 mg/kg, po administered once daily for 2 weeks in presence of PD-L1 antibody by […]; type: functional, organism-based; settings: dose 40-160 mg/kg
[15] = biological target: Programmed cell death 1 ligand 1 (Homo sapiens, UniProt Q9NZQ7); assay: Binding affinity to human PD-L1 assessed as dissociation constant by micro-scale thermophoresis analysis
Programmed cell death 1 ligand 1 (Homo sapiens, UniProt Q9NZQ7), sequence (Q9NZQ7 whole entry): as the sequence (Q9NZQ7 whole entry) above

B16-F10 [16] = assay: Antitumor activity against mouse B16-F10 cells implanted in […] mouse assessed as decrease in human PD-Ll expression in tumor at 80 mg/kg, po administered once daily for 2 weeks in presence of PD-L1 antibody by Western blotting analysis; type: functional, organism-based
B16-F10 [17] = assay: Antitumor activity against mouse B16-F10 cells implanted in […] mouse assessed as inhibition of tumor volume at 160 mg/kg, po administered once daily for 2 weeks; type: functional, organism-based
B16-F10 [18] = assay: Antitumor activity against mouse B16-F10 cells implanted in […] mouse assessed as inhibition of tumor volume at 80 mg/kg, po administered once daily for 2 weeks in presence of PD-L1 antibody; type: functional, organism-based
B16-F10 [19] = assay: Antitumor activity against mouse B16-F10 cells implanted in […] mouse assessed as increase in infiltration of CD8+ T cells level in tumor tissue at 40 to 160 mg/kg,po administered once daily for 2 weeks in presence of PD-L1 antibody by flow cytometry; type: functional, organism-based; settings: dose 40-160 mg/kg
B16-F10 [20] = assay: Antitumor activity against po dosed mouse B16-F10 cells implanted in […] mouse assessed as inhibition of tumor volume in presence of PD-L1 antibody administered once daily for 2 weeks; type: functional, organism-based; settings: dose 40-160 mg/kg
CT26 [21] = assay: Antitumor immunity activity against mouse CT26 cells implanted in BALB/c mouse assessed as upregulation of IFN-gamma mRNA at 160 mg/kg, po administered once daily for 2 weeks by qRT-PCR analysis; type: functional, organism-based
B16-F10 [22] = assay: Antitumor activity against mouse B16-F10 cells implanted in […] mouse assessed as decrease in nucleus to cytoplasm interaction in tumor cells at 40 to 160 mg/kg, po administered once daily for 2 weeks in presence of PD-L1 antibody by H and E staining based assay; type: functional, organism-based; settings: dose 40-160 mg/kg
CT26 [23] = assay: Antitumor activity against mouse CT26 cells implanted in BALB/c mouse assessed as downregulation of human PD-L1 expression in tumor tissue at 80 mg/kg per day, po administered once daily for 2 weeks by Western blotting analysis; type: functional, organism-based
CT26 [24] = assay: Antitumor activity against po dosed mouse CT26 cells implanted in BALB/c mouse assessed as tumor growth delay treated once daily for 2 weeks; type: functional, organism-based; settings: dose 40-160 mg/kg
B16-F10 [25] = assay: Antitumor activity against mouse B16-F10 cells implanted in […] mouse assessed as decrease in nucleus to cytoplasm interaction in tumor cells at 40 to 160 mg/kg,po administered once daily for 2 weeks by H and E staining based assay; type: functional, organism-based; settings: dose 40-160 mg/kg
B16-F10 [26] = assay: Antitumor immunity activity against mouse B16-F10 cells implanted in […] mouse assessed as increase level of IFN-gamma level in tumor tissue at 40 to 160 mg/kg, po administered once daily for 2 weeks by flow cytometry; type: functional, organism-based; settings: dose 40-160 mg/kg
CT26 [27] = assay: Antitumor activity against mouse CT26 cells implanted in BALB/c mouse assessed as inhibition of tumor cell growth in tumor tissue at 40 to 160 mg/kg, po administered once daily for 2 weeks by H and E staining based assay; type: functional, organism-based; settings: dose 40-160 mg/kg

## CC(=O)NCCNCc1cccc(Nc2nnc(-c3cccc(-c4ccccc4)c3C)o2)c1
[1]
  IC50: 34.1 µM

## Cc1c(-c2ccccc2)cccc1-c1nnc(Nc2cccc(CNCCO)c2)o1
[2]
  Kd: 0.48 µM
CT26 [3]
  Activity: Active
MDA-MB-231
  Activity: Active
[4]
  Activity: Non-Toxic
B16-F10 [5]
  Activity: Dose-Dependent Effect
CT26 [6]
  Activity: 75%
CT26 [7]
  Activity: 55%
CT26 [8]
  Activity: Active
[1]
  IC50: 27.8 µM
CT26 [9]
  Activity: 45%
CT26 [10]
  Activity: inactive
CT26 [11]
  Activity: Dose-Dependent Effect
CT26 [12]
  Activity: Active
[13]
  Activity: Non-Toxic
B16-F10 [14]
  Activity: Active
[15]
  Kd: 0.025 µM
B16-F10 [16]
  Activity: Active
B16-F10 [17]
  Activity: Active
B16-F10 [18]
  Activity: Active
B16-F10 [19]
  Activity: Dose-Dependent Effect
B16-F10 [20]
  Activity: Dose-Dependent Effect
CT26 [21]
  Activity: Active
B16-F10 [22]
  Activity: Active
CT26 [23]
  Activity: Active
CT26 [24]
  Activity: Dose-Dependent Effect
B16-F10 [25]
  Activity: Active
B16-F10 [26]
  Activity: Active
CT26 [27]
  Activity: Dose-Dependent Effect

## Cc1c(-c2ccccc2)cccc1-c1nnc(Nc2cccc(CN3CC[C@@H](O)C3)c2)o1
[1]
  IC50: 46.4 µM

## Cc1c(-c2ccccc2)cccc1-c1nnc(Nc2cccc(CN[C@H](C)CO)c2)o1
[1]
  IC50: 70 µM

## COc1ccc(Nc2nnc(-c3cccc(-c4ccccc4)c3C)o2)cc1
[1]
  IC50: 2.64 µM

## Cc1c(-c2ccccc2)cccc1-c1nnc(Nc2ccc(CNCC(=O)O)cc2)o1
[1]
  IC50: 516 µM

## Cc1c(-c2ccccc2)cccc1-c1nnc(Nc2cccc(CNCCCO)c2)o1
[1]
  IC50: 55.9 µM

## COc1ccc(Nc2nnc(-c3ccc([N+](=O)[O-])cc3)o2)cc1
[1]
  IC50: 64.1 µM

## Cc1c(-c2ccccc2)cccc1-c1nnc(Nc2cccc(CNCC(=O)O)c2)o1
[1]
  IC50: 24.5 µM

## Cc1c(-c2ccccc2)cccc1-c1nnc(Nc2cccc(CN3CCOCC3)c2)o1
[1]
  IC50: 64.1 µM

## Cc1c(-c2ccccc2)cccc1-c1nnc(Nc2ccc(CNCCO)cc2)o1
[1]
  IC50: 744 µM

## Cc1c(-c2ccccc2)cccc1-c1nnc(Nc2cccc(CNCCN)c2)o1
[1]
  IC50: 152 µM

## Cc1c(-c2ccccc2)cccc1-c1nnc(Nc2cccc(CN(C)CCO)c2)o1
[1]
  IC50: 67.1 µM

## CC(=O)NCCNCc1ccc(Nc2nnc(-c3cccc(-c4ccccc4)c3C)o2)cc1
[1]
  IC50: 1800 µM

## COc1ccc(Nc2nnc(-c3ccc(-c4ccccc4)c(C)c3)o2)cc1
[1]
  IC50: > 100 µM
